How the values were obtained:
[1] = target: T1, human leukocyte elastase (HLE) (Homo sapiens, UniProt P08246); experiment: anti-elastase activity relative to human leukocyte elastase, Me-OSAAPV-p-NA substrate, spectrophotometry; assay type: biochemical
T1 sequence (P08246 30-267): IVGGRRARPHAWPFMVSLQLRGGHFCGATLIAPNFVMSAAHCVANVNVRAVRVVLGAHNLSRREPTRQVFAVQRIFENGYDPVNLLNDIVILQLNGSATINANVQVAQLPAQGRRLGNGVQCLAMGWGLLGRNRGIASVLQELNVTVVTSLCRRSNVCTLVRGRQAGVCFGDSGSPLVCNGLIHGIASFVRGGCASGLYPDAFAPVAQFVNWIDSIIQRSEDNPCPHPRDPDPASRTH
Experimental: The anti-elastase activity of compounds according to the invention has been determined relative to human leukocyte elastase (HLE).
The test is performed as follows. […]
The inhibition % of the control elastase activity is then determined through spectrophotometry.

[2] = system: surviving human skins treated by human leukocyte elastase (HLE); experiment: ex vivo activity on fresh cuts of surviving human skins treated by HLE for 2 hours, elastic fibre morphometry; conditions: 20° C.
Experimental: The ex vivo activity of the compound in example 2 has been evaluated on surviving human skins treated by human leukocyte elastase (HLE). Fresh cuts from human skins, originating from 2 different donors, are treated for 2 hours, at 20° C., by 20 μl of a buffer solution (pH 7.4) optionally comprising 10 μg/ml of HLE and optionally 0.1% of the compound to be tested, optionally previously put in a solution in ethanol. The elastic fibres are coloured in blue using (+) catechin and are morphometrically quantified by computer assisted picture analysis. The surface percentage of average dermis occupied by the elastic fibres was evaluated this way.

[3] = system: surviving human skins treated by human leukocyte elastase (HLE); experiment: ex vivo activity on human skin fragments kept surviving 10 days in culture with HLE, elastic fibre morphometry; conditions: HLE 0.5 μg per ml of medium + 5 μl of compound at 0.2% in ethanol every other day, 37° C., 3 donors
Experimental: The ex vivo activity of the compound in example 2 has been evaluated on surviving human skins treated by human leukocyte elastase (HLE). Fragments of normal human skin, originating from 3 different donors, are placed in inserts positioned in culture wells. Some antibiotic supplemented culture medium is added in the bottom of the wells. A passage occurs through slow diffusion between both compartments by means of a porous membrane (pore size: 12 μm). The culture medium is renewed every three days. Optionally 0.5 μg of HLE per ml of culture medium are optionally added on the skin fragments. Also are added, every other day, 5 μl of the compound to be tested, previously put in a solution at 0.2% in weight in ethanol. The skins are kept surviving for 10 days at 37° C. The elastic fibres are coloured in blue using (+) catechin and are morphometrically quantified by computer assisted picture analysis. The surface percentage of average dermis occupied by the elastic fibres was evaluated this way.

[4] = system: surviving UVA irradiated human skins (8 J/cm^2); experiment: activity on surviving UVA irradiated human skins, morphometry of elastic fibres and collagen; conditions: UVA 8 J/cm^2 + 5 μl of compound at 0.2% in ethanol every two days; 7 days, 37° C.; four donors
Experimental: The activity of the compound in example 2 has been evaluated on surviving UVA irradiated human skins (8 J/cm^2). Fragments of normal human skin, originating from four different donors, are placed in inserts positioned in culture wells. Some antibiotic supplemented culture medium is added in the bottom of the wells. A passage occurs through slow diffusion between both compartments by means of a porous membrane (pore size: 12 μm). The culture medium is renewed every three days. On the skin fragments, every two days, are added 5 μl of the compound to be tested, previously put in a solution at 0.2% in ethanol. The skins are kept surviving for 7 days at 37° C. The skins are irradiated once at 8 J/cm^2 at 37° C. (Vilbert-Lourmat lamp, RMX-3W). The elastic fibres are coloured in blue using (+) catechin and are morphometrically quantified by computer assisted picture analysis. The surface percentage of average dermis occupied by the elastic fibres was evaluated this way.

Inhibition % of the control elastase activity ([1]; compound concentration 0.1%, HLE 40 milli-units per ml, 37° C., 60 minutes) | Inhibition % of the control elastase activity ([1]; concentration of compound A 0.2%) | inhibition of the elastase activity (in words) ([1]; even in a low amount) | SMILES | Surface % occupied by the elastic fibres ([2]; Skin 1, HLE 10 μg/ml + 0.1% compound) | Surface % occupied by the elastic fibres ([2]; Skin 2, HLE 10 μg/ml + 0.1% compound) | Surface % occupied by the elastic fibres [3] | Morphometric analysis of the collagen (superficial dermis) [4] | Morphometric analysis of the elastic fibres (superficial dermis) [4]
17% | – | – | CCOC(=O)CNC(=O)C(C(C)C)N(Cc1ccccc1)C(=O)CP(=O)(OCC)OCC (centres unmarked) [Compound B, ethyl (2-{benzyl-[(diéethoxyphosphoryl)-acetyl]-amino}-3-méthylbutyrylamino) acetate] | – | – | – | – | –
– | 68% | strong inhibition | CC(=O)N(c1cccc(C(F)(F)F)c1)C(C(=O)NCC(=O)O)C(C)C (centres unmarked) [Compound A, {2-[acetyl-(3-trifluoromethyl-phenyl)-amino]-3-methyl-butyrylamino}acetic acid] | 13.95% | 11.85% | 7.1% | 92% | 6.8%

Reference: patent US20040191203A1, “Cosmetic or dermatological composition comprising n-acylaminoamide derivatives” (priority 2001, published 2004)
